The target of the experiment is T1, GPCR GPR40 (Rattus norvegicus, UniProt Q8K3T4).
T1 construct: expressed in transfected cells; host or cells: HEK293
T1 sequence (Q8K3T4 whole entry): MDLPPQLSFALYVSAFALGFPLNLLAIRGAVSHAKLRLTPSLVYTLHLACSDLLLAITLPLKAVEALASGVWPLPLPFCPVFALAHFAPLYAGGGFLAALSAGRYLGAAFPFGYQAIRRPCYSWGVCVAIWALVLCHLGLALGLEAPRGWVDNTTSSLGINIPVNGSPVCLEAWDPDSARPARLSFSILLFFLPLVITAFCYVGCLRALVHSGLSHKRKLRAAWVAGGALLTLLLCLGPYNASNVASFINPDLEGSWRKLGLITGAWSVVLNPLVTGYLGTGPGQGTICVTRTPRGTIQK
Briefly: In vitro FLIPR assay with recombinant cells which express the GPCR GPR40. The format is cell-based. The note with it: recombinant HEK293 cells expressing GPR40; agonist-induced change in intracellular Ca2+ (Fluo-4, FLIPR); 100% = 10 μM reference agonist linoleic acid. As for the experimental part:
In Vitro FLIPR Assay with Recombinant Cells which Express the GPCR GPR40
Function-testing assays were performed by means of the FLIPR technique (“Fluorescence Imaging Plate Reader”, Molecular Devices Corp.). For this purpose, agonist-induced changes were determined in the intracellular concentration of Ca^2+ in recombinant HEK293 cells which expressed the GPCR GPR40.
For the studies, cells were sown into 96-well microtiter plates (60 000 cells/well) and left to grow overnight. The medium was removed and the cells were incubated in buffer which contains the fluorescent dye Fluo-4. After this loading with dye, the cells were washed, test substance was added and changes were measured in the intracellular Ca^2+ concentration in the FLIPR instrument. Results were presented as the percentage change relative to the control (0%: no test substance added; 100%: 10 μM reference agonist linoleic acid added) and used to calculate dose/effect curves, and EC50 values were determined.
For `CC#CC(CC(=O)O)c1ccc(OCC2(COc3cccc(C(C)(C)C)c3)CC2)cc1` (stereo not drawn) [Example 1, 3-{4-[1-(3-tert-Butylphenoxymethyl)cyclopropylmethoxy]phenyl}hex-4-ynoic acid], the EC50 was 730 nM.

On to `CC#CC(CC(=O)O)c1ccc(OCC2(COc3ccc(C(F)(F)F)cc3)CC2)cc1` (stereo not drawn) [Example 2, 3-{4-[1-(4-Trifluoromethylphenoxymethyl)cyclopropylmethoxy]phenyl}hex-4-ynoic acid], for which the concentration giving a half-maximal response (EC50) was 370 nM. On to `CC#CC(CC(=O)O)c1ccc(OCC2(COc3cccc(Cl)c3)CC2)cc1` (stereo not drawn) [Example 3, 3-{4-[1-(3-Chlorophenoxymethyl)cyclopropylmethoxy]phenyl}hex-4-ynoic acid], for which the EC50 stood at 290 nM. Turning to `CC#CC(CC(=O)O)c1ccc(OCC2(COc3ccc(C(F)(F)F)cc3Cl)COC2)cc1` (stereo not drawn) [Example 4, 3-{4-[3-(2-Chloro-4-trifluoromethylphenoxymethyl)oxetan-3-ylmethoxy]phenyl}hex-4-ynoic acid], the EC50 turned out to be 2550 nM. In the case of `CC#CC(CC(=O)O)c1ccc(OCC2(COc3cccc(C(C)(C)C)c3)CCC2)cc1` (stereo not drawn) [Example 5, 3-{4-[1-(3-tert-Butylphenoxymethyl)cyclobutylmethoxy]phenyl}hex-4-ynoic acid] it was 2560 nM; in that of `CC#CC(CC(=O)O)c1ccc(OCC2(COc3ccc(C(F)(F)F)cc3)CCC2)cc1` (stereo not drawn) [Example 6, 3-{4-[1-(4-Trifluoromethylphenoxymethyl)cyclobutylmethoxy]phenyl}hex-4-ynoic acid], 1320 nM.

Turning to `CC#CC(CC(=O)O)c1ccc(OCC2(COc3cccc(C)c3)CCC2)cc1` (stereo not drawn) [Example 7, 3-[4-(1-m-Tolyloxymethylcyclobutylmethoxy)phenyl]hex-4-ynoic acid], the EC50 was found to be 1540 nM.

For `CC#CC(CC(=O)O)c1ccc(OCC2(COc3ccccc3)CCC2)cc1` (stereo not drawn) [Example 8, 3-[4-(1-Phenoxymethylcyclobutylmethoxy)phenyl]hex-4-ynoic acid], the EC50 was 450 nM. In the case of `CC#CC(CC(=O)O)c1ccc(OCC2(COc3cc(C(F)(F)F)cc(C(F)(F)F)c3)CC2)cc1` (stereo not drawn) [Example 9, 3-{4-[1-(3,5-Bis(trifluoromethyl)phenoxymethyl)cyclopropylmethoxy]phenyl}hex-4-ynoic acid] it was 1660 nM.

For `CC#CC(CC(=O)O)c1ccc(OCC2(COc3ccccc3)CC2)cc1` (stereo not drawn) [Example 10, 3-[4-(1-Phenoxymethylcyclopropylmethoxy)phenyl]hex-4-ynoic acid], the 50% effective concentration (EC50) was 70 nM. In the case of `CC#CC(CC(=O)O)c1ccc(OCC2(COc3cccc(C)c3)CC2)cc1` (stereo not drawn) [Example 11, 3-[4-(1-m-Tolyloxymethylcyclopropylmethoxy)phenyl]hex-4-ynoic acid] it was 150 nM; in that of `CC#CC(CC(=O)O)c1ccc(OCC2(COc3ccc(C#N)c(Cl)c3)CC2)cc1` (stereo not drawn) [Example 12, 3-{4-[1-(3-Chloro-4-cyanophenoxymethyl)cyclopropylmethoxy]phenyl}hex-4-ynoic acid], 140 nM. Regarding `CC#CC(CC(=O)O)c1ccc(OCC2(COc3ccc(C(F)(F)F)nc3)CC2)cc1` (stereo not drawn) [Example 13, 3-{4-[1-(6-Trifluoromethylpyridin-3-yloxymethyl)cyclopropylmethoxy]phenyl}hex-4-ynoic acid], the EC50 is 710 nM. In the case of `CC#CC(CC(=O)O)c1ccc(OCC2(COc3ccc(C(F)(F)F)cn3)CC2)cc1` (stereo not drawn) [Example 14, 3-{4-[1-(5-Trifluoromethylpyridin-2-yloxymethyl)cyclopropylmethoxy]phenyl}hex-4-ynoic acid] it was 170 nM; in that of `CC#CC(CC(=O)O)c1ccc(OCC2(COc3ccc(C(F)(F)F)cc3Cl)CC2)cc1` (stereo not drawn) [Example 15, 3-{4-[1-(2-Chloro-4-trifluoromethylphenoxymethyl)cyclopropylmethoxy]phenyl}hex-4-acid], 1580 nM; in that of `COC(CC(=O)O)c1ccc(OCC2(COc3ccc(C(F)(F)F)cn3)CC2)cc1` (stereo not drawn) [Example 16, 3-Methoxy-3-{4-[1-(5-trifluoromethylpyridin-2-yloxymethyl)cyclopropylmethoxy]phenyl}-propionic acid], 2460 nM.

For `CC#CC(CC(=O)O)c1ccc(OCC2(COc3ccccc3C)CC2)cc1` (stereo not drawn) [Example 18, 3-[4-(1-o-Tolyloxymethylcyclopropylmethoxy)phenyl]hex-4-ynoic acid], the EC50 is 60 nM. For `CC#CC(CC(=O)O)c1ccc(OCC2(COc3ccc(F)cc3)CC2)cc1` (stereo not drawn) [Example 19, 3-{4-[1-(4-Fluorophenoxymethyl)cyclopropylmethoxy]phenyl}hex-4-ynoic acid], the EC50 is 70 nM. In the case of `CC#CC(CC(=O)O)c1ccc(OCC2(COc3cccc(F)c3)CC2)cc1` (stereo not drawn) [Example 20, 3-{4-[1-(3-Fluorophenoxymethyl)cyclopropylmethoxy]phenyl}hex-4-ynoic acid] it was 70 nM; in that of `CC#CC(CC(=O)O)c1ccc(OCC2(COc3ccccc3F)CC2)cc1` (stereo not drawn) [Example 21, 3-{4-[1-(2-Fluorophenoxymethyl)cyclopropylmethoxy]phenyl}hex-4-ynoic acid], 110 nM; in that of `CC#CC(CC(=O)O)c1ccc(OCC2(COc3ccc(F)c(Cl)c3)CC2)cc1` (stereo not drawn) [Example 22, 3-{4-[1-(3-Chloro-4-fluorophenoxymethyl)cyclopropylmethoxy]phenyl}hex-4-ynoic acid], 330 nM.

What is called EC50 is the concentration giving half of the maximal effect.
